Laboratory results from US8933099B2, “Monocyclic pyridine derivative” (Eisai R&D Management Co., Ltd., priority 2013, dated 2015).
Read-outs that look alike come from different tables or passages of the source.

Assays:
[1] = test system: human stomach cancer cell line SNU-16 (FGFR2 gene amplification); experiment: SNU-16 growth inhibition assay; format: cell-based; details: Homo sapiens, SNU-16, 72 h
Description: In this assay, the growth inhibitory activity of a test substance in a human stomach cancer cell line harboring FGFR2 gene amplification is measured.
Then, 10 μL of Cell Counting Kit-8 (Dojindo Laboratories, CK04) was added to each well, and the resultant was incubated for 1 to 2 hours in a 5% CO2 incubator (37° C.) to cause a color reaction. The absorbance value was measured with ENVISION™ (PerkinElmer Co., Ltd.) at 450 nm.

[2] = test system: normal human umbilical vein endothelial cells (HUVEC); experiment: HUVEC growth inhibition assay (VEGF-induced); format: cell-based; details: Homo sapiens, HUVEC, 72 h, read-out: HUVEC (IC50 (nM)), growth in the presence of VEGF 10 ng/mL, 3 days
Description: The absorbance value was measured with ENVISION™ (PerkinElmer Co., Ltd.) at 450 nm. The absorbance values of the wells without adding the test substance but with VEGF addition was defined as 100% and the absorbance values of the wells with neither the test substance nor VEGF addition was defined as 0%.

[3] = read-out: SNU-16 (IC50 (nM)), cell growth, 3 days, Cell Counting Kit-8

IC50 ([1]; read-out: SNU-16 (IC50 (nM))) [nM] | Compound | IC50 [1, 3] [nM] | IC50 [2] [nM]
7.5 | CNC(=O)n1ccc2cc(Oc3ccnc(NC(=O)c4ccc(C5CCNCC5)cc4)c3)c(OCCOC)cc21 [Example 20, 6-(2-Methoxyethoxy)-N-methyl-5-((2-(4-(piperidin-4-yl)benzamide)pyridin-4-yl)oxy)-1H-indole-1-carboxamide] | – | –
6.2 | CCOCCOc1cc2c(ccn2C(=O)NC)cc1Oc1ccnc(NC(=O)c2ccc(C3CCNCC3)cc2)c1 [Example 24, 6-(2-Ethoxyethoxy)-N-methyl-5-((2-(4-(piperidin-4-yl)benzamide)pyridin-4-yl)oxy)-1H-indole-1-carboxamide] | – | –
10 | CCOc1cc2c(ccn2C(=O)NC)cc1Oc1ccnc(NC(=O)c2ccc(C3CCN(CC(C)(C)O)CC3)cc2)c1 [Example 58] | – | –
17.5 | CNC(=O)n1ccc2cc(Oc3ccnc(NC(=O)c4ccc(C5CCN(C)CC5)cc4)c3)c(OC(C)C)cc21 [Example 69] | – | –
4.6 | CNC(=O)n1ccc2cc(Oc3ccnc(NC(=O)c4ccc(C5CN(CC(C)(C)O)C5)cc4)c3)c(OCCOC)cc21 [Example 79] | – | –
3.9 | CNC(=O)n1ccc2cc(Oc3ccnc(NC(=O)c4ccc(C5CN(C)C5)cc4)c3)c(OCCOC)cc21 [Example 87] | – | –
6.9 | CNC(=O)n1ccc2cc(Oc3ccnc(NC(=O)c4ccc(C5CN(C(C)C)C5)cc4)c3)c(OCCOC)cc21 [Example 88] | – | –
5.1 | CCOCCOc1cc2c(ccn2C(=O)NC)cc1Oc1ccnc(NC(=O)c2ccc(C3CN(CC(C)(C)O)C3)cc2)c1 [Example 95] | – | –
6.4 | CCOCCOc1cc2c(ccn2C(=O)NC)cc1Oc1ccnc(NC(=O)c2ccc(C3CN(C[C@@H](C)O)C3)cc2)c1 [Example 96] | – | –
3.6 | CCOCCOc1cc2c(ccn2C(=O)NC)cc1Oc1ccnc(NC(=O)c2ccc(C3CN(C[C@H](C)O)C3)cc2)c1 [Example 97] | – | –
6.7 | CCOCCOc1cc2c(ccn2C(=O)NC)cc1Oc1ccnc(NC(=O)c2ccc(C3CCN(CC(C)(C)O)CC3)cc2)c1 [Example 109] | – | –
5.8 | CCOCCOc1cc2c(ccn2C(=O)NC)cc1Oc1ccnc(NC(=O)c2ccc(C3CCN(C(C)C)CC3)cc2)c1 [Example 110] | – | –
5.7 | CCOCCOc1cc2c(ccn2C(=O)NC)cc1Oc1ccnc(NC(=O)c2ccc(C3CCN(CC)CC3)cc2)c1 [Example 113] | – | –
4.7 | CCOCCOc1cc2c(ccn2C(=O)NC)cc1Oc1ccnc(NC(=O)c2ccc(C3CCN(C)CC3)cc2)c1 [Example 114] | – | –
8.5 | CNC(=O)n1ccc2cc(Oc3ccnc(NC(=O)c4ccc(C5CN(C(C)C)C5)cc4)c3)c(OCCCOC)cc21 [Example 123] | – | –
8.9 | CCN1CC(c2ccc(C(=O)Nc3cc(Oc4cc5ccn(C(=O)NC)c5cc4OCCCOC)ccn3)cc2)C1 [Example 124] | – | –
6.4 | CNC(=O)n1ccc2cc(Oc3ccnc(NC(=O)c4ccc(C5CCN(CCO)CC5)cc4)c3)c(OCCCOC)cc21 [Example 128] | – | –
7.7 | CCN1CCC(c2ccc(C(=O)Nc3cc(Oc4cc5ccn(C(=O)NC)c5cc4OCCCOC)ccn3)cc2)CC1 [Example 129] | – | –

Continued, molecule first:

Compound | IC50 ([1]; read-out: SNU-16 (IC50 (nM))) [nM] | IC50 [1, 3] [nM] | IC50 [2] [nM]
CNC(=O)n1ccc2cc(Oc3ccnc(NC(=O)c4ccc(C5CCN(CCCF)CC5)cc4)c3)c(OC)cc21 [Example 5, 5-((2-(4-(1-(3-Fluoropropyl)piperidin-4-yl)benzamide)pyridin-4-yl)oxy)-6-methoxy-N-methyl-1H-indole-1-carboxamide] | – | 13.4 | 387
CNC(=O)n1ccc2cc(Oc3ccnc(NC(=O)c4ccc(C5CCNCC5F)cc4)c3)c(OC)cc21 (stereo not shown) [Example 6, 5-((2-(4-(3-Fluoropiperidin-4-yl)benzamide)pyridin-4-yl)oxy)-6-methoxy-N-methyl-1H-indole-1-carboxamide] | – | 9.1 | 180
CNC(=O)n1ccc2cc(Oc3ccnc(NC(=O)c4ccc(C5(F)CCNCC5)cc4)c3)c(OC)cc21 [Example 7, 5-((2-(4-(4-Fluoropiperidin-4-yl)benzamide)pyridin-4-yl)oxy)-6-methoxy-N-methyl-1H-indole-1-carboxamide] | – | 9.6 | 205
CNC(=O)n1ccc2cc(Oc3ccnc(NC(=O)c4ccc(N5CCC(N6CCCC6)CC5)cc4)c3)c(OC)cc21 [Example 8, 6-Methoxy-N-methyl-5-((2-(4-(4-(pyrrolidin-1-yl)piperidin-1-yl)benzamide)pyridin-4-yl)oxy)-1H-indole-1-carboxamide] | – | 15.4 | 140
CNC(=O)n1ccc2cc(Oc3ccnc(NC(=O)c4ccc(CN5C[C@H](OC)[C@@H](O)C5)cc4)c3)c(OC)cc21 [Example 10, 5-((2-(4-(((3S,4S)-3-Hydroxy-4-methoxypyrrolidin-1-yl)methyl)benzamide)pyridin-4-yl)oxy)-6-methoxy-N-methyl-1,4-indole-1-carboxamide] | – | 28.7 | 350
CCN1CCN(CCc2ccc(C(=O)Nc3cc(Oc4cc5ccn(C(=O)NC)c5cc4OC)ccn3)cc2)CC1 [Example 11, 5-((2-(4-(2-(4-Ethylpiperazin-1-yl)ethyl)benzamide)pyridin-4-yl)oxy)-6-methoxy-N-methyl-1H-indole-1-carboxamide] | – | 14.5 | 132
CNC(=O)n1ccc2cc(Oc3ccnc(NC(=O)c4ccc(OCCN5CCC(O)CC5)cc4)c3)c(OC)cc21 [Example 12, 5-((2-(4-(2-(4-Hydroxypiperidin-1-yl)ethoxy)benzamide)pyridin-4-yl)oxy)-6-methoxy-N-methyl-1H-indole-1-carboxamide] | – | 13 | 141
CCN1CCC(n2cc(C(=O)Nc3cc(Oc4cc5ccn(C(=O)NC)c5cc4OC)ccn3)cn2)CC1 [Example 13, 5-((2-(1-(1-Ethylpiperidin-4-yl)-1H-pyrazole-4-carboxamide)pyridin-4-yl)oxy)-6-methoxy-N-methyl-1H-indole-1-carboxamide] | – | 10.9 | 396
CNC(=O)n1ccc2cc(Oc3ccnc(NC(=O)c4ccc(OC5CCN(CCO)CC5)cc4)c3)c(OC)cc21 [Example 14, 5-((2-(4-((1-(2-Hydroxyethyl)piperidin-4-yl)oxy)benzamide)pyridin-4-yl)oxy)-6-methoxy-N-methyl-1H-indole-1-carboxamide] | – | 9.5 | 169
CCOc1cc2c(ccn2C(=O)NC)cc1Oc1ccnc(NC(=O)c2ccc(C3CCNCC3)cc2)c1 [Example 15, 6-Ethoxy-N-methyl-5-((2-(4-(piperidin-4-yl)benzamide)pyridin-4-yl)oxy)-1H-indole-1-carboxamide] | 9.7 | – | –
CNC(=O)n1ccc2cc(Oc3ccnc(NC(=O)c4ccc(C5CCNCC5)cc4)c3)c(OC(C)C)cc21 [Example 17, 6-Isopropoxy-N-methyl-5-((2-(4-(piperidin-4-yl)benzamide)pyridin-4-yl)oxy)-1H-indole-1-carboxamide] | 17.7 | – | –
CNC(=O)n1ccc2cc(Oc3ccnc(NC(=O)c4ccc(C5CCN(C[C@@H](C)O)CC5)cc4)c3)c(OC(C)C)cc21 [Example 18, (R)-5-((2-(4-(1-(2-Hydroxypropyl)piperidin-4-yl)benzamide)pyridin-4-yl)oxy)-6-isopropoxy-N-methyl-1H-indole-1-carboxamide] | – | 13.9 | 180
CNC(=O)n1ccc2cc(Oc3ccnc(NC(=O)c4ccc(CN5CCC(O)CC5)cc4)c3)c(OC(F)F)cc21 [Example 19, 6-(Difluoromethoxy)-5-((2-(4-((4-hydroxypiperidin-1-yl)methyl)benzamide)pyridin-4-yl)oxy)-N-methyl-1H-indole-1-carboxamide] | – | 14.1 | 151
CNC(=O)n1ccc2cc(Oc3ccnc(NC(=O)c4ccc(C5CCN(C(C)C)CC5)cc4)c3)c(OCCOC)cc21 [Example 23, 5-((2-(4-(1-Isopropylpiperidin-4-yl)benzamide)pyridin-4-yl)oxy)-6-(2-methoxyethoxy)-N-methyl-1H-indole-1-carboxamide] | – | 6.5 | 300
CCOCCOc1cc2c(ccn2C(=O)NC)cc1Oc1ccnc(NC(=O)c2ccc(C3CN(CCO)C3)cc2)c1 [Example 27, 6-(2-Ethoxyethoxy)-5-((2-(4-(1-(2-hydroxyethyl)azetidin-3-yl)benzamide)pyridin-4-yl)oxy)-N-methyl-1H-indole-1-carboxamide] | – | 6.2 | 218
CCOCCOc1cc2c(ccn2C(=O)NC)cc1Oc1ccnc(NC(=O)c2ccc(CN3C[C@@H](C)N[C@@H](C)C3)cc2)c1 [Example 30, 5-((2-(4-(((3S,5R)-3,5-Dimethylpiperazin-1-yl)methyl)benzamide)pyridin-4-yl)oxy)-6-(2-ethoxyethoxy)-N-methyl-1H-indole-1-carboxamide] | – | – | 566
CNC(=O)n1ccc2cc(Oc3ccnc(NC(=O)c4ccc(CN5CCC[C@H]5CO)s4)c3)c(OCCOC)cc21 [Example 83] | – | – | 310
CCOCCOc1cc2c(ccn2C(=O)NC)cc1Oc1ccnc(NC(=O)c2ccc(CN3CC[C@@H](O)C3)cc2)c1 [Example 106] | – | – | 726
CNC(=O)n1ccc2cc(Oc3ccnc(NC(=O)c4ccc(CN5CCC[C@@H]5CO)cc4)c3)c(OCCCOC)cc21 [Example 116] | – | – | 520
CNC(=O)n1ccc2cc(Oc3ccnc(NC(=O)c4ccc(CN5CC[C@H](O)C5)cc4)c3)c(OCCCOC)cc21 [Example 120] | – | – | 457
CNC(=O)n1ccc2cc(Oc3ccnc(NC(=O)c4ccc(C5CCN(C(C)C)CC5)cc4)c3)c(OCCCOC)cc21 [Example 127] | – | – | 226
